Data reported in patent US8669271B2 (Boehringer Ingelheim International GmbH, priority 2010, dated 2014).

Molecular target: T1, human GPR119 (Homo sapiens, UniProt Q8TDV5)
T1 construct: expression vector for human GPR119 cDNA (Acc. No. NP_848566); expressed in transfected cells
T1 sequence (Q8TDV5 1-335): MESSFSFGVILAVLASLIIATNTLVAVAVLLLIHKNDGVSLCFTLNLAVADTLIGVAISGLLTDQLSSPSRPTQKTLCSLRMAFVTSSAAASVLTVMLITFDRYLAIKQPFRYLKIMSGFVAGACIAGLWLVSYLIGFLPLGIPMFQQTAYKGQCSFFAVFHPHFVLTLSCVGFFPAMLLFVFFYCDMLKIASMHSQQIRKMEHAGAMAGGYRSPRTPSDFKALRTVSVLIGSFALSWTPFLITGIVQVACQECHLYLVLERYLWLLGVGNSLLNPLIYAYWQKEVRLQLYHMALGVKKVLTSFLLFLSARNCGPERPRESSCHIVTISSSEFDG
Assay: AlphaScreen cAMP assay in Min-6/hGPR119 cells (activation of GPR119, intracellular cAMP)
Assay type: cell-based
Details: MIN6 cells stably transfected with human GPR119; cAMP by AlphaScreen after 45 minutes incubation at room temperature
Summary of the method: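 MIN6 cells stably expressing human GPR119, seeded 24 h before treatment; compounds applied 45 min at ~20 °C in Hepes-buffered saline pH 7.4 with 0.5 mM IBMX, 0.1% BSA, 1% DMSO final. Intracellular cAMP measured by AlphaScreen.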

Compound | EC50 [µM]
CC1(OC(=O)N2CCC([C@]3(C)Cc4cc(-c5ccc(S(C)(=O)=O)cc5)ncc4O3)CC2)CC1 [Example 85, (S)-4-[5-(4-Methanesulfonyl-phenyl)-2-methyl-2,3-dihydro-furo[2,3-c]pyridin-2-yl]-piperidine-1-carboxylic acid 1-methyl-cyclopropyl ester] | 0.007
CC(C)OC(=O)N1CCC([C@]2(C)Cc3cc(-c4ccc(S(C)(=O)=O)cc4)ncc3O2)CC1 [Example 86, (S)-4-[5-(4-Methanesulfonyl-phenyl)-2-methyl-2,3-dihydro-furo[2,3-c]pyridin-2-yl]-piperidine-1-carboxylic acid isopropyl ester] | 0.011
CC1(OC(=O)N2CCC([C@]3(C)Cc4cc(C5=CCN(S(C)(=O)=O)CC5)ncc4O3)CC2)CC1 [Example 88, (S)-4-[5-(1-Methanesulfonyl-1,2,3,6-tetrahydro-pyridin-4-yl)-2-methyl-2,3-dihydro-furo[2,3-c]pyridin-2-yl]-piperidine-1-carboxylic acid 1-methyl-cyclopropyl ester] | 0.013
CC(C)OC(=O)N1CCC([C@]2(C)Cc3cc(C4=CCN(S(C)(=O)=O)CC4)ncc3O2)CC1 [Example 89, (S)-4-[5-(1-Methanesulfonyl-1,2,3,6-tetrahydro-pyridin-4-yl)-2-methyl-2,3-dihydro-furo[2,3-c]pyridin-2-yl]-piperidine-1-carboxylic acid isopropyl ester] | 0.007
CC(C)(C)OC(=O)N1CCC(C2Cc3cc(N4CCN(S(C)(=O)=O)CC4)ncc3O2)CC1 (stereo not shown) [Example 90, 4-[5-(4-Methanesulfonyl-piperazin-1-yl)-2,3-dihydro-furo[2,3-c]pyridin-2-yl]-piperidine-1-carboxylic acid tert-butyl ester] | 0.019
CC(C)(C)OC(=O)N1CCC(C2Cc3nc(N4CCN(S(C)(=O)=O)CC4)ncc3O2)CC1 (stereo not shown) [Example 91, 4-[2-(4-Methanesulfonyl-piperazin-1-yl)-6,7-dihydro-furo[3,2-d]pyrimidin-6-yl]-piperidine-1-carboxylic acid tert-butyl ester] | 0.603
CC(C)(C)OC(=O)N1CCC(C2Cc3cc(C4=CCN(S(C)(=O)=O)CC4)ncc3O2)CC1 (stereo not shown) [Example 92, 4-[5-(1-Methanesulfonyl-1,2,3,6-tetrahydro-pyridin-4-yl)-2,3-dihydro-furo[2,3-c]pyridin-2-yl]-piperidine-1-carboxylic acid tert-butyl ester] | 0.012
CC(C)(C)OC(=O)N1CCC(C2Cc3cc(C4CCN(S(C)(=O)=O)CC4)ncc3O2)CC1 (stereo not shown) [Example 93, 4-[5-(1-Methanesulfonyl-piperidin-4-yl)-2,3-dihydro-furo[2,3-c]pyridin-2-yl]-piperidine-1-carboxylic acid tert-butyl ester] | 0.032
CC(C)(C)OC(=O)N1CCC(C2Cc3cc(C4=CCN(S(C)(=O)=O)CC4)ccc3O2)CC1 (stereo not shown) [Example 94, 4-[5-(1-Methanesulfonyl-1,2,3,6-tetrahydro-pyridin-4-yl)-2,3-dihydro-benzofuran-2-yl]-piperidine-1-carboxylic acid tert-butyl ester] | 0.007
CC(C)OC(=O)N1CCC(C2Cc3cc(C4=CCN(S(C)(=O)=O)CC4)ncc3O2)CC1 (stereo not shown) [Example 95, 4-[5-(1-Methanesulfonyl-1,2,3,6-tetrahydro-pyridin-4-yl)-2,3-dihydro-furo[2,3-c]pyridin-2-yl]-piperidine-1-carboxylic acid isopropyl ester] | 0.017
CS(=O)(=O)N1CC=C(c2cc3c(cn2)OC(C2CCN(C(=O)OC4CCC4)CC2)C3)CC1 (stereo not shown) [Example 96, 4-[5-(1-Methanesulfonyl-1,2,3,6-tetrahydro-pyridin-4-yl)-2,3-dihydro-furo[2,3-c]pyridin-2-yl]-piperidine-1-carboxylic acid cyclobutyl ester] | 0.015
CC1(OC(=O)N2CCC(C3Cc4cc(C5=CCN(S(C)(=O)=O)CC5)ncc4O3)CC2)CC1 (stereo not shown) [Example 97, 4-[5-(1-Methanesulfonyl-1,2,3,6-tetrahydro-pyridin-4-yl)-2,3-dihydro-furo[2,3-c]pyridin-2-yl]-piperidine-1-carboxylic acid 1-methyl-cyclopropyl ester] | 0.007
CCS(=O)(=O)N1CCN(c2cc3c(cn2)OC(C2CCN(C(=O)OC(C)(C)C)CC2)C3)CC1 (stereo not shown) [Example 98] | 0.015
CC(C)S(=O)(=O)N1CCN(c2cc3c(cn2)OC(C2CCN(C(=O)OC(C)(C)C)CC2)C3)CC1 (stereo not shown) [Example 99, 4-{5-[4-(Propane-2-sulfonyl)-piperazin-1-yl]-2,3-dihydro-furo[2,3-c]pyridin-2-yl}-piperidine-1-carboxylic acid tert-butyl ester] | 0.048
CCCS(=O)(=O)N1CCN(c2cc3c(cn2)OC(C2CCN(C(=O)OC(C)(C)C)CC2)C3)CC1 (stereo not shown) [Example 100, 4-{5-[4-(Propane-1-sulfonyl)-piperazin-1-yl]-2,3-dihydro-furo[2,3-c]pyridin-2-yl}-piperidine-1-carboxylic acid ten-butyl ester] | 0.009
CC(C)(C)OC(=O)N1CCC(C2Cc3cc(N4CCN(S(=O)(=O)C5CC5)CC4)ncc3O2)CC1 (stereo not shown) [Example 101, 4-[5-(4-Cyclopropanesulfonyl-piperazin-1-yl)-2,3-dihydro-furo[2,3-c]pyridin-2-yl]-piperidine-1-carboxylic acid tert-butyl ester] | 0.023
CN(C1CCN(c2cc3c(cn2)OC(C2CCN(C(=O)OC(C)(C)C)CC2)C3)CC1)S(C)(=O)=O (stereo not shown) [Example 102, 4-{5-[4-(Methanesulfonyl-methyl-amino)-piperidin-1-yl]-2,3-dihydro-furo[2,3-c]pyridin-2-yl}-piperidine-1-carboxylic acid tert-butyl ester] | 0.637
CC(C)OC(=O)N1CCC(C2Cc3cc(-c4cccc(C#N)c4)ccc3O2)CC1 (stereo not shown) [Example 103, 4-[5-(3-Cyano-phenyl)-2,3-dihydro-benzofuran-2-yl]-piperidine-1-carboxylic acid isopropyl ester] | 0.186
CC(=O)c1ccc(-c2ccc3c(c2)CC(C2CCN(C(=O)OC(C)C)CC2)O3)cc1 (stereo not shown) [Example 104] | 0.2
CC(C)OC(=O)N1CCC(C2Cc3cc(-c4ccc(CC#N)cc4)ccc3O2)CC1 (stereo not shown) [Example 105] | 0.099
Cc1noc(C)c1-c1ccc2c(c1)CC(C1CCN(C(=O)OC(C)C)CC1)O2 (stereo not shown) [Example 106] | 1.71
CC(C)OC(=O)N1CCC(C2Cc3cc(-c4cccc(S(C)(=O)=O)c4)ccc3O2)CC1 (stereo not shown) [Example 107] | 1.12

Compound | EC50 [µM]
COc1ncc(-c2ccc3c(c2)CC(C2CCN(C(=O)OC(C)C)CC2)O3)cn1 (stereo not shown) [Example 108] | 1.98
CCNC(=O)c1ccc(-c2ccc3c(c2)CC(C2CCN(C(=O)OC(C)C)CC2)O3)cc1 (stereo not shown) [Example 109] | 0.028
CC(C)OC(=O)N1CCC(C2Cc3cc(-c4ccc(S(N)(=O)=O)cc4)ccc3O2)CC1 (stereo not shown) [Example 110] | 0.052
CC(C)OC(=O)N1CCC(C2Cc3cc(-c4ccc(C#N)c(F)c4)ccc3O2)CC1 (stereo not shown) [Example 111] | 0.152
CC(C)OC(=O)N1CCC(C2Cc3cc(-c4cnc(C#N)nc4)ccc3O2)CC1 (stereo not shown) [Example 112] | 0.32
CC(C)OC(=O)N1CCC(C2Cc3cc(-c4ccncc4F)ccc3O2)CC1 (stereo not shown) [Example 113] | 0.167
COC(=O)c1ccc(-c2ccc3c(c2)CC(C2CCN(C(=O)OC(C)C)CC2)O3)cn1 (stereo not shown) [Example 114] | 0.527
CC(C)OC(=O)N1CCC(C2Cc3cc(-c4ccc(S(C)(=O)=O)cc4F)ccc3O2)CC1 (stereo not shown) [Example 115] | 0.042
COC(=O)c1cc(-c2ccc3c(c2)CC(C2CCN(C(=O)OC(C)C)CC2)O3)cs1 (stereo not shown) [Example 116] | 0.77
CC(C)OC(=O)N1CCC(C2Cc3cc(-c4ccc(C(F)(F)F)nc4)ccc3O2)CC1 (stereo not shown) [Example 117] | 0.374
CC(C)OC(=O)N1CCC(C2Cc3cc(-c4ccc(S(C)(=O)=O)c(F)c4)ccc3O2)CC1 (stereo not shown) [Example 118] | 0.015
COc1cc(-c2ccc3c(c2)CC(C2CCN(C(=O)OC(C)C)CC2)O3)ccc1C#N (stereo not shown) [Example 119] | 0.855
CC(C)OC(=O)N1CCC(C2Cc3cc(-c4ccc5c(cnn5C)c4)ccc3O2)CC1 (stereo not shown) [Example 120] | 0.387
CC(C)OC(=O)N1CCC(C2Cc3cc(-c4ccc(NS(C)(=O)=O)cc4)ccc3O2)CC1 (stereo not shown) [Example 121] | 0.046
COCCN(C)C(=O)c1ccc(-c2ccc3c(c2)CC(C2CCN(C(=O)OC(C)C)CC2)O3)cc1 (stereo not shown) [Example 123, 4-(5-{4-[(2-Methoxy-ethyl)-methyl-carbamoyl]-phenyl}-2,3-dihydro-benzofuran-2-yl)-piperidine-1-carboxylic acid isopropyl ester] | 0.03
COCCN(C)C(=O)Cc1ccc(-c2ccc3c(c2)CC(C2CCN(C(=O)OC(C)C)CC2)O3)cc1 (stereo not shown) [Example 124] | 0.07
CC(O)CCNC(=O)c1ccc(-c2ccc3c(c2)CC(C2CCN(C(=O)OC(C)C)CC2)O3)cc1 (stereo not shown) [Example 125] | 0.11
CC(O)CCNC(=O)Cc1ccc(-c2ccc3c(c2)CC(C2CCN(C(=O)OC(C)C)CC2)O3)cc1 (stereo not shown) [Example 126] | 0.168
COC1CCN(C(=O)c2ccc(-c3ccc4c(c3)CC(C3CCN(C(=O)OC(C)C)CC3)O4)cc2)CC1 (stereo not shown) [Example 127] | 0.025
COC1CCN(C(=O)Cc2ccc(-c3ccc4c(c3)CC(C3CCN(C(=O)OC(C)C)CC3)O4)cc2)CC1 (stereo not shown) [Example 128] | 0.057
CC(O)CNC(=O)c1ccc(-c2ccc3c(c2)CC(C2CCN(C(=O)OC(C)C)CC2)O3)cc1 (stereo not shown) [Example 129] | 0.073
